The nature of data set [1]: Solubility in water. The settings on record: 20 g of substrate added to 100 ml of water. It counts as physicochemical. As to the method: To 100 ml of water was added 20 g of a substrate, and the dissolution state was observed.
Data set [2] deals with T1, amylase derived from human pancreatic juice (human P type α-amylase) (Homo sapiens, UniProt P04746).
T1 sequence (P04746 16-511): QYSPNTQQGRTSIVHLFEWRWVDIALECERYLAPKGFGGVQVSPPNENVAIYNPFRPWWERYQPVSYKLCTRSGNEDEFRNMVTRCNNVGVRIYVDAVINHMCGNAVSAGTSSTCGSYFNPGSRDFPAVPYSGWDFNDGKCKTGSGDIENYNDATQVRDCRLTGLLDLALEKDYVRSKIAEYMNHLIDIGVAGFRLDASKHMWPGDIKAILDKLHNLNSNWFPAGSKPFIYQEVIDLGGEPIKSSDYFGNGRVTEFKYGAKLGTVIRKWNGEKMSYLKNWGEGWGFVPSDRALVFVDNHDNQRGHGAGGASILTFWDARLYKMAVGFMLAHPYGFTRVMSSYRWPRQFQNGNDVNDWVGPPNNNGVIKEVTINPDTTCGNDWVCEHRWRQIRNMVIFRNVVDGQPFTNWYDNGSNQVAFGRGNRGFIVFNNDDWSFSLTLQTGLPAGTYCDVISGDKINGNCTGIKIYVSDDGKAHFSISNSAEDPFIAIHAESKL
In words: Km value, P type α-amylase. It counts as biochemical. The note with it: pH 7.0, 37° C., Lineweaver-Burk. As for the experimental part:
(§1) Km values, hydrolysis rate, water solubility and the patterns of action in the hydrolysis of the present substrates 2-chloro-4-nitrophenyl 5^5 -eno-4^5 -O-mesyl-β-D-maltopentaoside (EMG5CNP) and 2-chloro-4-nitrophenyl 6^5 -azido-6^5 -deoxy- β-D-maltopentaoside (ADG5CNP) obtained in Example were examined in accordance with the following methods.
(§2) Substrate solutions were prepared by dissolving in a 50 mM phosphate buffer (pH=7.0) containing 40 mM NaCl and 2 mM MgCl2 a substrate to 0.16, 0.32, 0.48, 0.64, 0.80 and 0.96 mM, respectively.
(§3) The Km value of each substrate solution was obtained by measuring the hydrolysis rate of the substrate in accordance with the same procedure as in the measurement of hydrolysis rate described below and roughly calculating the Lineweaver-Burk's reciprocal plot (see "Tanpaku-Kohso no Jikken-hou", ed. Takeichi Horio & Jinpei Yamashita, Nanko-do, 1981).
(§4) Each substrate was dissolved in a 50 mM phosphate buffer (pH=7.0) containing 40 mM NaCl and 2 mM MgCl2 to make three substrate solutions in a concentration of 0.8-1.6 times and three substrate solutions in a concentration of 1.6-3.2 times per the roughly calculated Km value in the aforementioned paragraph (ii).
(§5) The Km value was calculated in accordance with the same procedure as in the aforementioned paragraph (ii).
(§6) P: amylase derived from human pancreatic juice, […]

In data set [3] the target is T2, amylase derived from human saliva (human S type α-amylase) (Homo sapiens, UniProt P0DUB6).
T2 sequence (P0DUB6 16-511): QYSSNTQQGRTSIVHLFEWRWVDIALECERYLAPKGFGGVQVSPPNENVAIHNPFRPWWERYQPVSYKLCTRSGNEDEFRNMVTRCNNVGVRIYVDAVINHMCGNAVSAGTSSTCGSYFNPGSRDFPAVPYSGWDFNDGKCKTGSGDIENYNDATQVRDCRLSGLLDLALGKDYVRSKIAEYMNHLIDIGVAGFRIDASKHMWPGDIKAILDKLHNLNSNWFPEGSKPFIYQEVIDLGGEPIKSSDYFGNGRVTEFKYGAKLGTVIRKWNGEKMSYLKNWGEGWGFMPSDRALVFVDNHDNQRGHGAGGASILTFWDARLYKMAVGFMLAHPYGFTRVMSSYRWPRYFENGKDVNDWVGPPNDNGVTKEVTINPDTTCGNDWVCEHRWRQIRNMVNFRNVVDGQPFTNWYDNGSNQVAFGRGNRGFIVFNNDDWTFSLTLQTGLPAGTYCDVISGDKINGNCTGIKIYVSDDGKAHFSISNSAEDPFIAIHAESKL
In words: Km value, S type α-amylase. It counts as biochemical. The settings on record: pH 7.0, 37° C., Lineweaver-Burk. As to the method: as §1, §2, §3, §4, §5
(§7) S: amylase derived from human saliva.

Data set [4] has as its target T2, amylase derived from human saliva (human S type α-amylase). In words: Hydrolysis rate, S type α-amylase. It counts as biochemical. The settings on record: relative to hydrolysis rate of 3 mM G5CNP defined as 10, substrate 7-9 times the Km. As for the experimental part: (§8) The coupled enzyme solution was prepared in the same manner as in the step (2) of Example 5.
(§9) Commercially available human P type and S type α-amylase solutions having a concentration of ca. 500 IU/l were prepared in the same manner as in the step (3) of Example 5.
(§10) With 250 μl of the α-amylase solution prepared in (iii) was mixed 1.0 ml of the coupled enzyme. The mixture was heated at 37° C. for 1 minute, and 2.0 ml of the substrate solution was added with stirring to the mixture. The variation of absorbance at 400 nm was measured for 2 minutes after heating the mixture at 37° C. for 2 minutes. The hydrolysis rate of each substrate, namely the variable absorbance per unit time was expressed with the relative values to the hydrolysis rate of 3 mM G5CNP (the reference substrate) which is defined as 10.
as §7

Data set [5] addresses T1, amylase derived from human pancreatic juice (human P type α-amylase). Kind of data set: Hydrolysis rate, P type α-amylase. In kind it is biochemical. The note with it: relative to hydrolysis rate of 3 mM G5CNP defined as 10, substrate 7-9 times the Km. As to the method: as §8, §9, §10, §6
Data set [6] shares this target. Kind of data set: Patterns of action (hydrolyzed product by HPLC), P type α-amylase. In kind it is biochemical. The note with it: 0.5 mM substrate, 37° C., 20 minutes. As for the experimental part: as §9
(§11) To 1.0 ml of the substrate solution was added 100 μl of the α-amylase solution prepared in the paragraph (iii) of the aforementioned hydrolysis rate, and the mixture, after stirred sufficiently, was subjected to reaction at 37° C. for 20 minutes. The hydrolyzed product was determined quantitatively by the high performance liquid chromatography of the reaction mixture.
as §6

Data set [7] addresses T2, amylase derived from human saliva (human S type α-amylase). Kind of data set: Patterns of action (hydrolyzed product by HPLC), S type α-amylase. In kind it is biochemical. The settings on record: 0.5 mM substrate, 37° C., 20 minutes. As to the method: as §9, §11, §7
Data set [8] deals with human α-amylase (P:S=1:1). In words: α-Amylase hydrolysis (increase in absorbance at 400 nm with coupled enzymes). The settings on record: for Increase in absorbance for 2 minutes (corrected by the 0 IU/l of α-amylase activity): substrate solution 3.00 mM, 400 nm, 37° C., pH 7.0; for hydrolysis by α-amylase (in words): as understood from Tables 1 and 2. In kind it is biochemical. As for the experimental part:
Coupled enzyme solution was prepared by dissolving a commercially available α-glucosidase derived from yeast and a commercially available β-glucosidase derived from almond in a 50 mM phosphate buffer (pH=7.0) containing 40 mM NaCl and 2 mM MgCl2 to a concentration of 117 units/ml and 13 units/ml, respectively. As the commercially available α- and β-glucosidases, those available from Toyobo Co., Ltd. were used.
Standard α-amylase solutions were prepared by dissolving a commercially available human α-amylase (P:S=1:1) in purified water to a concentration of 0, 148, 284, 401 and 525 IU/l, respectively. As the commercially available human α-amylase, Calibzyme.AMY manufactured by International Reagents Corp. was employed. As for the activity of α-amylase, an amount of the enzyme which decomposes 1μ mol of (a commercially available) 2-chloro-4-nitrophenyl β-D-maltopentaoside at 37° C. for one minute was defined as 1 international unit (IU).
The substrate solution (a) was prepared by dissolving 2-chloro-4-nitorphenyl 6^5 -azido-6^5 -deoxy-β-D-maltopentaoside (referred to hereinafter as the substrate of the present invention) obtained in Example 3 in a 50 mM phosphate buffer (pH=7.0) containing 40 mM NaCl and 2 mM MgCl2 to a concentration of 3.00 mM.
The substrate solution (b) was prepared by dissolving 2-chloro-4-nitrophenyl 6^3 -azido-6^3 -deoxy-β-D-maltotrioside (referred to hereinafter as the reference substrate) obtained in the step (1) in a 50 mM phosphate buffer (pH=7.0) containing 40 mM NaCl and 2 mM MgCl2 to a concentration of 3.00 mM.
A coupled enzyme solution was prepared in the same manner as in the step (2) of Example 5.
α-amylase solutions were prepared in the same manner as in the step (3) of Example 5 by dissolving a commercially available human α-amylase (P:S=1:1) in purified water to a concentration of 0, 250 and 500 IU/l, respectively.
The coupled enzyme solution in an amount of 1.0 ml was added with stirring to 250 μl of the α-amylase solution, and the mixture was heated at 37° C. for one minute. Each of the substrate solution in an amount of 2.0 ml was added with stirring to the mixture, and the mixture was heated at 37° C. for 2 minutes before measuring the variation of the absorbance at 400 nm for 2 minutes.
2-chloro-4-nitrophenyl 5^5 -eno-4^5 -O-mesyl-β-D-maltopentaoside (referred to hereinafter as substrate of the present invention) obtained in Example 1 was dissolved in a 50 mM phosphate buffer (pH=7.0) containing 40 mM NaCl and 2 mM MgCl2 to a concentration of 3.00 mM.
2-chloro-4-nitrophenyl 5^3 -eno-4^3 -O-mesyl-β-D-maltotrioside(referred to hereinafter as reference substrate) obtained in the previous step (1) was dissolved in a 50 mM phosphate buffer (pH=7.0) containing 40 mM NaCl an 2 mM MgCl2 to a concentration of 3.00 mM.
α-amylase solutions were prepared in the same manner as in the step (5) of Example 7.
The variations of absorbance were measured in the same manner as in the step (6) of Example 7.

In general, Km refers to the substrate concentration at which the rate is half of its maximum. Regarding `O=[N+]([O-])c1ccc(O[C@@H]2O[C@H](CO)[C@@H](O[C@H]3O[C@H](CO)[C@@H](O[C@H]4O[C@H](CO)[C@@H](O[C@H]5O[C@H](CO)[C@@H](O[C@H]6O[C@H](CO)[C@@H](O)[C@H](O)[C@H]6O)[C@H](O)[C@H]5O)[C@H](O)[C@H]4O)[C@H](O)[C@H]3O)[C@H](O)[C@H]2O)c(Cl)c1` [Example G5CNP, 2-chloro-4-nitrophenylβ-D-maltopentaoside, reference compound], in data set [1], the Solubility in water result is “Good”. Also, the values for the Km in data set [2] and in data set [3] were 290 µM and 370 µM, respectively. In addition, the Hydrolysis rate in data set [4] and in data set [5] was 10 throughout. The “Patterns of action, hydrolyzed product G2CNP” value in data set [6] was 81 mol %; in data set [7] it was 83 mol %. Further, the “Patterns of action, hydrolyzed product G3CNP” value amounted to 8 mol % in data set [6] and 11 mol % in data set [7]. The figures for the “Patterns of action, hydrolyzed product G4CNP” value in data set [6] and in data set [7] were 8 mol % and 4 mol %, respectively. Further, the “Patterns of action, hydrolyzed product GCNP” value was 3 mol % in data set [6] and 2 mol % in data set [7].

Regarding `[N-]=[N+]=NC[C@H]1O[C@H](O[C@H]2[C@H](O)[C@@H](O)[C@@H](O[C@H]3[C@H](O)[C@@H](O)[C@H](Oc4ccc([N+](=O)[O-])cc4Cl)O[C@@H]3CO)O[C@@H]2CO)[C@H](O)[C@@H](O)[C@@H]1O` [Substrate solution (b) (Table 1), 2-chloro-4-nitrophenyl 6^3-azido-6^3-deoxy-β-D-maltotrioside, reference compound], the “Increase in absorbance for 2 minutes (corrected by the 0 IU/l of α-amylase activity)” value came out at 0.002 in data set [8] (Table 1, α-amylase activity 250 IU/l) and 0.005 in data set [8] (Table 1, α-amylase activity 500 IU/l). Moreover, the “hydrolysis by α-amylase (in words)” value in data set [8] was “hardly hydrolyzed”.

With `C=C1O[C@H](O[C@H]2[C@H](O)[C@@H](O)[C@@H](O[C@H]3[C@H](O)[C@@H](O)[C@H](Oc4ccc([N+](=O)[O-])cc4Cl)O[C@@H]3CO)O[C@@H]2CO)[C@H](O)[C@@H](O)[C@@H]1OS(C)(=O)=O` [Substrate solution (b) (Table 2), 2-chloro-4-nitrophenyl 5^3-eno-4^3 -O-mesyl-β-D-maltotrioside, reference compound], the “Increase in absorbance for 2 minutes (corrected by the 0 IU/l of α-amylase activity)” value in data set [8] (Table 2, α-amylase activity 250 IU/l) is 0.001; in data set [8] (Table 2, α-amylase activity 500 IU/l), 0.002. Moreover, in data set [8], the “hydrolysis by α-amylase (in words)” value is recorded as “hardly hydrolyzed”.

Values taken from patent US5302514A, “Maltooligoside derivative, reagent for determining α-amylase activity containing the same as effective ingredient and a process for determining the α-amylase activity using same” (Kikkoman Corporation, priority 1991, dated 1994).
